Source: patent US12583870B2, “Azaheteroaryl compound and application thereof” (SHANGHAI BLUERAY BIOPHARMA CO., LTD., priority 2019, dated 2026)

How the values were obtained:
[1] = test system: trimethylation level of histone H3K27 in G401 cells; test: ELISA (H3K27 trimethylation) analysis in G401 cells; type: cell-based; details: Homo sapiens, G-401, 72 hours, H3K27me3 standardized to H3
Summary of the method: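 Cells exposed 72 h to 10-point 3-fold dilutions, top 10 μM, 0.5% final DMSO. Acid-extracted histones assayed by ELISA (ECL) for H3K27me3, normalized to total H3 and to DMSO control; IC50 from dose-response fit.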

[2] = target: T1, EED protein (His6-tagged full-length) binding to H3K27me3 polypeptide (Homo sapiens, UniProt O75530); test: AlphaScreen evaluation of blocking the binding of EED to H3K27Me3; details: EED 60 nM, biotinylated H3K27me3 75 nM, 30 minutes incubation
T1 construct: His6-tagged full-length EED protein (441 amino acids)
T1 sequence (O75530 whole entry): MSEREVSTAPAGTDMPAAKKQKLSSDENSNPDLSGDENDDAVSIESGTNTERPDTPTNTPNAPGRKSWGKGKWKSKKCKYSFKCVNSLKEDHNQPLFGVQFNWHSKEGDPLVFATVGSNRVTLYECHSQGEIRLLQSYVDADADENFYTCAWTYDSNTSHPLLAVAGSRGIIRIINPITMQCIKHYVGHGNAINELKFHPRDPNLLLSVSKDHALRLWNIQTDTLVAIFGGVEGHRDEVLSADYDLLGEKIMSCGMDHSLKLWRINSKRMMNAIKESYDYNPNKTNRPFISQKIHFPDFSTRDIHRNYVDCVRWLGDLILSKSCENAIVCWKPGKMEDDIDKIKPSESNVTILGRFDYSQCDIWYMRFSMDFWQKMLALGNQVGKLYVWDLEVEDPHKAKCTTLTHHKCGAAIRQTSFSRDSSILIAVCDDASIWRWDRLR
Protocol: Firstly, compound solutions of different concentration gradients were prepared. Compound powder was dissolved in DMSO to prepare a mother liquor. 1.5 μl of the mother liquor of the compound was taken and added into 198.5 μl of a reaction buffer (25 mM HEPES (pH 8.0), 50 mM NaCl, 0.015% Tween 20, 0.5% BSA). The mixture was mixed uniformly. Then a 3-fold series dilution was carried out with the above-mentioned buffer containing 0.75% DMSO. 9 different test concentrations were provided for one same compound. 5 μL of compounds of different concentration gradients were taken and added into the ProxiPlate-384 Plus, White detection plate (PerkinElmer, 6008280) and two replicates in parallel were provided for each concentration gradient.
Secondly, a reaction for blocking the binding was carried out. The above-mentioned buffer was used to dilute His6-tagged full-length EED protein (441 amino acids) to 60 nM and biotinylated polypeptide fragment H3K27me3 (amino acids at positions 19-33) (Biotinylated-H3K27me3) to 75 nM. 5 μl of the polypeptide fragment at the concentration of 75 nM and 5 µl of the protein at the concentration of 60 nM were transferred to the detection wells containing the compound, respectively. The detection plate was sealed with the film and incubation was carried out at room temperature for 30 minutes.
Finally, the detection was carried out with the AlphaScreen method. Prior use, nickel chelate receptor beads and streptavidin donor beads (at the ratio of 1:1, Perkin Elmer, product number 6760619M) were mixed with the above-mentioned reaction buffer. Then 5 μl of the above-mentioned pre-mixed detection solution was added to each of the detection wells. The donor beads and receptor beads were both at a final concentration of 5 μg/mL. The detection plate was covered and sealed with tinfoil and placed in the dark at room temperature for 1 hour. The signal was read using the AlphaScreen detector on the Spectra max i3. AlphaScreen signals were standardlized based on the readings obtained from positive controls (maximum signal controls) and negative controls (minimum signal controls) to give the inhibition rates for compounds at different concentrations, and afterwards non-linear regression analysis was carried out using GraphPad Prism 5, inhibition curves were made based on the Dose-Response equation of Y=Bottom+(Top−Bottom)/(1+10^((Log IC50−X)*HillSlope)) and the IC50 values of each compound were obtained. […]

[3] = test system: KARPAS-422 cells; test: Cell proliferation analysis, KARPAS-422, 13 days, CellTiter-Glo; type: cell-based; details: Homo sapiens, 312 h
Summary of the method: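 KARPAS-422 cells were treated with PRC2 inhibitors over 9 three-fold dilutions from 10 μM top (0.5% DMSO, duplicates) in RPMI-1640 with 15% FBS at 37 °C. Every 3–4 days cells were counted and reseeded at 1×10^4/well with fresh compound. Viability was read by CellTiter-Glo luminescence on day 13.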

Row | SMILES | IC50 [1] | IC50 [2] | IC50 [3]
1 | CCOC(=O)c1cnc2c(-c3cnc(NCc4c(F)ccc5c4CCO5)n4cnnc34)cc(F)cn12 [Ethyl 6-fluoro-8-(5-(((5-fluoro-2,3-dihydrobenzofuran-4-yl)methyl)amino)-[1,2,4]triazolo[4,3-c]pyrimidin-8-yl)imidazo[1,2-a]pyridine-3-carboxylate] | 0.047 µM | 0.0221 µM | 
2 | O=S1(=O)C=c2cc(-c3cnc(NCc4c(F)ccc5c4[C@H]4C[C@H]4O5)n4cnnc34)ccc2=C1F [1-fluoro-5-(5-((((1aR,6bR)-5-fluoro-1a,6b-dihydro-1H-cyclopropa[b]benzofuran-6-yl)methyl)amino)-[1,2,4]triazolo[4,3-c]pyrimidin-8-yl)benzo[c]thiophene 2,2-dioxide] | 0.075 µM | 0.186 µM | 
3 | CC1=Cc2cc(-c3cnc(NCc4c(F)ccc5c4CCO5)n4cnnc34)cc(Cl)c2S1(=O)=O [7-chloro-5-(5-(((5-fluoro-2,3-dihydrobenzofuran-4-yl)methyl)amino)-[1,2,4]triazolo[4,3-c]pyrimidin-8-yl)-2-methylbenzo[b]thiophene 1,1-dioxide] | 0.026 µM | 0.0039 µM | 
4 | Cc1ccc(-c2cnc(NCc3c(F)ccc4c3CCO4)n3cnnc23)c2ncc(C(=O)O)n12 [8-(5-(((5-fluoro-2,3-dihydrobenzofuran-4-yl)methyl)amino)-[1,2,4]triazolo[4,3-c]pyrimidin-8-yl)-5-methylimidazo[1,2-a]pyridine-3-carboxylic acid] | 0.004 µM | 0.0054 µM | 
5 | CCOC(=O)c1c(C)nc2c(-c3cnc(NCc4c(F)ccc5c4CCO5)n4cnnc34)cc(F)cn12 [Ethyl 6-fluoro-8-(5-(((5-fluoro-2,3-dihydrobenzofuran-4-yl)methyl)amino)-[1,2,4]triazolo[4,3-c]pyrimidin-8-yl)-2-methylimidazo[1,2-a]pyridine-3-carboxylate] | 0.087 µM | 0.0452 µM | 
6 | CCOC(=O)c1c(O)nc2c(-c3cnc(NCc4c(F)ccc5c4CCO5)n4cnnc34)cc(F)cn12 [Ethyl 6-fluoro-8-(5-(((5-fluoro-2,3-dihydrobenzofuran-4-yl)methyl)amino)-[1,2,4]triazolo[4,3-c]pyrimidin-8-yl)-2-hydroxyimidazo[1,2-a]pyridine-3-carboxylate] | 0.091 µM | 0.0912 µM | 
7 | CCOC(=O)c1c(C(F)(F)F)nc2c(-c3cnc(NCc4c(F)ccc5c4CCO5)n4cnnc34)cccn12 [Ethyl 8-(5-(((5-fluoro-2,3-dihydrobenzofuran-4-yl)methyl)amino)-[1,2,4]triazolo[4,3-c]pyrimidin-8-yl)-2-(trifluoromethyl)imidazo[1,2-a]pyridine-3-carboxylate] | 0.202 µM | 0.029 µM | 
8 | Fc1ccc2c(c1CNc1ncc(-c3cccn4c(F)cnc34)c3nncn13)CCO2 | 0.0035 µM | 0.0092 µM | 
9 | Fc1ccc2c(c1CNc1ncc(C3=CC=CN4CCN=C34)c3nncn13)CCO2 [8-(2,3-dihydroimidazo[1,2-a]pyridin-8-yl)-N-((5-fluoro-2,3-dihydrobenzofuran-4-yl)methyl)-[1,2,4]triazolo[4,3-c]pyrimidin-5-amine] |  | 0.0052 µM | 
10 | Fc1ccc2c(c1CNc1ncc(-c3c(C(F)(F)F)ccc4nsnc34)c3nncn13)CCO2 [N-((5-fluoro-2,3-dihydrobenzofuran-4-yl)methyl)-8-(5-(trifluoromethyl)benzo[c][1,2,5]thiadiazol-4-yl)-[1,2,4]triazolo[4,3-c]pyrimidin-5-amine] | 0.17 µM | 0.0464 µM | 
11 | Fc1ccc2c(c1CNc1ncc(-c3cc(Cl)cn4cc(C(F)(F)F)nc34)c3nncn13)CCO2 | 0.089 µM | 0.0096 µM | 
12 | O=C(O)c1cnc2c(-c3cnc(NCc4c(F)ccc5c4CCO5)n4cnnc34)cccn12 [8-(5-(((5-fluoro-2,3-dihydrobenzofuran-4-yl)methyl)amino)-[1,2,4]triazolo[4,3-c]pyrimidin-8-yl)imidazo[1,2-a]pyridine-3-carboxylic acid] | 0.329 µM | 0.0051 µM | 
13 | Cc1cc(-c2cnc(NCc3c(F)ccc4c3CCO4)n3cnnc23)c2nc(C(F)(F)F)cn2c1 [N-((5-fluoro-2,3-dihydrobenzofuran-4-yl)methyl)-8-(6-methyl-2-(trifluoromethyl)imidazo[1,2-a]pyridin-8-yl)-[1,2,4]triazolo[4,3-c]pyrimidin-5-amine] | 0.041 µM | 0.0157 µM | 
14 | Fc1ccc2c(c1CNc1ncc(-c3cccc4cccnc34)c3nncn13)CCO2 [N-((5-fluoro-2,3-dihydrobenzofuran-4-yl)methyl)-8-(quinolin-8-yl)-[1,2,4]triazolo[4,3-c]pyrimidin-5-amine] | 0.0029 µM | 0.0051 µM | 
15 | Fc1ccc2c(c1CNc1ncc(-c3cnc4nccn4c3)c3nncn13)CCO2 [N-((5-fluoro-2,3-dihydrobenzofuran-4-yl)methyl)-8-(imidazo[1,2-a]pyrimidin-6-yl)-[1,2,4]triazolo[4,3-c]pyrimidin-5-amine] | 0.0129 µM | 0.0049 µM | 
16 | Cc1ccc(-c2cnc(NCc3c(F)ccc4c3CCO4)n3cnnc23)c2ncc(CC(=O)N3CCOCC3)n12 [2-(8-(5-(((5-fluoro-2,3-dihydrobenzofuran-4-yl)methyl)amino)-[1,2,4]triazolo[4,3-c]pyrimidin-8-yl)-5-methylimidazo[1,2-a]pyridin-3-yl)-1-morpholinoethan-1-one] | 0.0143 µM |  | 0.0057 µM
17 | Cc1ccc(-c2cnc(NCc3c(F)ccc4c3CCO4)n3cnnc23)c2ncc(CC#N)n12 [2-(8-(5-(((5-fluoro-2,3-dihydrobenzofuran-4-yl)methyl)amino)-[1,2,4]triazolo[4,3-c]pyrimidin-8-yl)-5-methylimidazo[1,2-a]pyridin-3-yl)acetonitrile] | 0.007 µM |  | 0.0014 µM
18 | CC1=C(Cl)c2cc(-c3cnc(NCc4c(F)ccc5c4[C@H]4C[C@H]4O5)n4cnnc34)ccc2S1(=O)=O [3-chloro-5-(5-((((1aR,6bR)-5-fluoro-1a,6b-dihydro-1H-cyclopropa[b]benzofuran-6-yl)methyl)amino)-[1,2,4]triazolo[4,3-c]pyrimidin-8-yl)-2-methylbenzo[b]thiophene 1,1-dioxide] | 0.127 µM | 0.011 µM | 
19 | Cc1ccc(-c2cnc(NCc3c(F)ccc4c3[C@H]3C[C@H]3O4)n3cnnc23)c2ncnn12 [N-(((1aR,6bR)-5-fluoro-1a,6b-dihydro-1H-cyclopropa[b]benzofuran-6-yl)methyl)-8-(5-methyl-[1,2,4]triazolo[1,5-a]pyridin-8-yl)-[1,2,4]triazolo[4,3-c]pyrimidin-5-amine] | 0.0024 µM |  | 0.0044 µM
20 | CN(C)C(=O)c1cnc2c(-c3cnc(NCc4c(F)ccc5c4CCO5)n4cnnc34)cc(F)cn12 [6-fluoro-8-(5-(((5-fluoro-2,3-dihydrobenzofuran-4-yl)methyl)amino)-[1,2,4]triazolo[4,3-c]pyrimidin-8-yl)-N,N-dimethylimidazo[1,2-a]pyridine-3-carboxamide] | 0.0047 µM |  | 0.0024 µM
21 | Fc1ccc2c(c1CNc1ncc(-c3ccc(N4CCOCC4)n4ncnc34)c3nncn13)CCO2 [N-((5-fluoro-2,3-dihydrobenzofuran-4-yl)methyl)-8-(5-morpholino-[1,2,4]triazolo[1,5-a]pyridin-8-yl)-[1,2,4]triazolo[4,3-c]pyrimidin-5-amine] | 0.0011 µM |  | 0.0007 µM
22 | COc1ccc(-c2cnc(NCc3c(F)ccc4c3CCO4)n3cnnc23)c2ncnn12 [N-((5-fluoro-2,3-dihydrobenzofuran-4-yl)methyl)-8-(5-methoxy-[1,2,4]triazolo[1,5-a]pyridin-8-yl)-[1,2,4]triazolo[4,3-c]pyrimidin-5-amine] | 0.0032 µM |  | 0.0011 µM
23 | Cc1ccc(-c2cnc(NCc3c(F)ccc4c3CCO4)n3cnnc23)c2nnnn12 [N-((5-fluoro-2,3-dihydrobenzofuran-4-yl)methyl)-8-(5-methyltetrazolo[1,5-a]pyridin-8-yl)-[1,2,4]triazolo[4,3-c]pyrimidin-5-amine] | 0.0024 µM |  | 0.0025 µM
